Data set [1] is described as follows: Acute toxicity, oral administration in female and male Swiss mice (Reed-Muench method as modified by Pizzi). The conditions noted are these: mouse, in vivo. From the text:
(b) Acute toxicity.-Acute toxicity has been determined in both female and male Swiss mice by oral administration according to the method by Reed-Muench as modified by Pizzi (Human Biology, 22(3), 151-190, 1950).

Data set [2] concerns Swiss male mice. Put plainly: Analgesic activity, phenylquinone test (Siegmund et al), oral administration in Swiss male mice. Format: in vivo. The conditions noted are these: Mus musculus. From the text:
(a) Analgesic activity.-Analgesic activity has been determined in Swiss male mice by orally administering the compounds according to the phenylquinone test, as described by Siegmund et al (Proc. Soc.Exp.Biol.Med., 95, 729, 1957). From the analgesia values obtained, the ED50 for each compound has been calculated.

Structures are written as SMILES.

Regarding `C[C@H](O)[C@@H](c1ccc2c(c1)OCO2)N1CCOCC1` (relative stereo) [Example 2, d,l-erythro-1-(3',4'-methylenedioxyphenyl)-1-morpholine-propane-2-ol], in data set [1], the LD50 (in general, the dose at which mortality reaches 50%) was 1200 mg/kg. Also, the ED50 – broadly, the dose at which the effect has come halfway, by size or by number of responders – in data set [2] turned out to be 25.7 mg/kg.

For the molecule `C[C@H](O)[C@@H](c1ccc2c(c1)OCO2)N1CCN(Cc2ccccc2)CC1` (relative stereo) [Example 3, d,l-erythro-1-(3',4'-methylenedioxyphenyl)-1-(4-benzyl-1-piperazinyl)propane-2-ol], the LD50 in data set [1] was 256 mg/kg. In data set [2], the ED50 was 29.7 mg/kg. The molecule `CCN(CC)[C@H](c1ccc2c(c1)OCO2)[C@H](C)O` (relative stereo) [Example 4, d,l-erythro-1-(3',4'-methylenedioxyphenyl)-1-diethylamino-propane-2-ol] registered an LD50 in data set [1] of 317 mg/kg. In data set [2], this molecule registered an ED50 of 107 mg/kg. In the case of `C[C@H](O)[C@@H](c1ccc2c(c1)OCO2)N1CCCCC1` (relative stereo) [Example 5, d,l-erythro-1-(3',4'-methylenedioxyphenyl)-1-piperidinepropane-2-ol], in data set [1], the LD50 turned out to be 277 mg/kg. Moreover, the ED50 in data set [2] is 33.3 mg/kg.

Turning to `C[C@H](O)[C@@H](c1ccc2c(c1)OCO2)N1CCC(O)CC1` (relative stereo) [Example 6, d,l-erythro-1-(3',4'-methylenedioxyphenyl)-1-(4-hydroxypiperidine)-propane-2-ol], the LD50 in data set [1] came to 1060 mg/kg. This molecule also had an ED50 in data set [2] of 109 mg/kg. `C[C@H](O)[C@@H](c1ccc2c(c1)OCO2)N1CCCC1` (relative stereo) [Example 7, d,l-erythro-1-(3',4'-methylenedioxyphenyl)-1-pyrrolidinopropane-2-ol] yielded an LD50 in data set [1] of 599 mg/kg. The molecule also yielded an ED50 in data set [2] of 140 mg/kg.

Take `C[C@H](O)[C@@H](c1ccc2c(c1)OCO2)N1CCCCCC1` (relative stereo) [Example 8, d,l-erythro-1-(3',4'-methylenedioxyphenyl)-1-homopiperidino-propane-2-ol]: the LD50 in data set [1] came out at 233 mg/kg. In data set [2], this molecule came in with a 50% effective dose (ED50) of 45.5 mg/kg.

Consider `C[C@H](O)[C@H](NCc1ccccc1)c1ccc2c(c1)OCO2` (relative stereo) [Example 9, d,l-erythro-1-(3',4'-methylenedioxyphenyl)-1-benzylaminopropane-2-ol], for which the LD50 in data set [1] amounted to 252 mg/kg. Further, in data set [2], the ED50 came out at 28.8 mg/kg. For the molecule `C[C@H](O)[C@@H](c1ccc2c(c1)OCO2)N(C)Cc1ccccc1` (relative stereo) [Example 10, d,l-erythro-1-(3',4'-methylenedioxyphenyl)-1-(N-methylbenzylamino)-propane-2-ol], in data set [1], the LD50 came out at 360 mg/kg. In data set [2], the ED50 is 33.8 mg/kg. As to `C[C@H](O)[C@@H](c1ccc2c(c1)OCO2)N(C)C1CCCCC1` (relative stereo) [Example 11, d,l-erythro-1-(3',4'-methylenedioxyphenyl)-1-(N-methylcyclohexylamino)-propane-2-ol], the LD50 in data set [1] was determined as 167 mg/kg. Also, the ED50 in data set [2] is 29.8 mg/kg. `C[C@H](O)[C@H](NC1CC1)c1ccc2c(c1)OCO2` (relative stereo) [Example 12, d,l-erythro-1-(3',4'-methylenedioxyphenyl)-1-cyclopropylaminopropane-2-ol]: the LD50 in data set [1] amounted to 780 mg/kg. In addition, the ED50 in data set [2] was 62.3 mg/kg. Consider `C[C@H](O)[C@H](NC1CCCCC1)c1ccc2c(c1)OCO2` (relative stereo) [Example 13, d,l-erythro-1-(3',4'-methylenedioxyphenyl)-1-cyclohexylaminopropane-2-ol], for which the LD50 in data set [1] is 245 mg/kg. Further, it took a dose of 31.7 mg/kg to reach the 50% effect level in data set [2] (ED50). In turn, `CC(=O)Oc1ccccc1C(=O)O` [Acetylsalicylic acid, reference compound] displayed an ED50 in data set [2] of 72 mg/kg. In data set [2], `Cc1c(N(C)C)c(=O)n(-c2ccccc2)n1C` [Aminophenazone, reference compound] had an ED50 of 23.4 mg/kg. In data set [2], `COc1ccc2c3c1O[C@H]1[C@@H](O)C=C[C@H]4[C@@H](C2)N(C)CC[C@@]341` [Codeine, reference compound] came in with an ED50 of 1.97 mg/kg.

The values are drawn from patent US4535159A, “Process for producing 1-position amino-derivatives of 1-(3',4'-methylenedioxyphenyl)propane-2-ol” (Ferrer Internacional, S.A., priority 1981, dated 1985).
